The source of these data is patent US20260306490A1, “PIM1 INHIBITOR FOR TREATING MYELOPROLIFERATIVE NEOPLASMS” (Sumitomo Pharma America, Inc., priority 2022, published 2026).

Where two headings read alike, the source gives them in different places.

Series [1] deals with R/R AML. As to conditions: cited from earlier work.
Series [2] concerns PIM2. As to conditions: cited from earlier work.
Series [3] has as its system PIM3. As to conditions: cited from earlier work.
Series [4] has as its system PIM1. As to conditions: cited from earlier work.
In series [5] the test system is Solid tumor. The following applies: n = 35; cited from earlier work.
The test system of series [6] is hematology parameters (platelet counts). Put plainly: CGLP preclinical dog study, hematology parameters. The class given is in vivo.
In series [7] the test system is MF patients. The following applies: JAKARTA, monotherapy 400 mg QD, N = 96; cited from earlier work.
In series [8] the test system is R/R MF. The following applies: ≥100 × 10^9/L PLT, monotherapy; cited from earlier work.
[9] abbreviates: read-out: Preclinical IC50, PIM2.
Where [10] appears, read: read-out: Preclinical IC50, PIM3.
Where [11] appears, read: read-out: Preclinical IC50, PIM1.
[12] abbreviates: R/R AML (n = 30), Other (n = 9).

As usually defined, the IC50 is the midpoint of a concentration-inhibition curve. Turning to `N[C@@H]1CCCN(c2c(/C=C3\SC(=O)NC3=O)cccc2-c2ccccc2)C1` [AZD1208], in series [1] (R/R AML, n = 32), the “Efficacy, circulating blasts (in several patients)” value is listed as “response, reduction”; the “Hem AE, Febrile neutropenia” value is “(28%)”; the “Non-hem AE, diarrhea” value was “diarrhea (44%),”; the “Non-hem AE, nausea” value is “Nausea (47%)”. In addition, in series [1] (R/R AML, n = 32), the “Non-hem AE, pneumonia” value is reported as “pneumonia (19%)” and the “Non-hem AE, vomiting” value is on record as “vomiting (31%),”. Also, in series [2] (setting [9]), the IC50 is […]. The IC50 in series [3] (setting [10]) is 1.9 nM. Moreover, the IC50 in series [4] (setting [11]) is […]. For the same molecule, in series [5], the “Efficacy, stable disease for ≥6 weeks” value was at least 6 weeks in 13 patients; the “Hem AE, Anemia” value is “Anemia (51%),”; the “Hem AE, Thrombocytopenia” value was “(14-26%)”; the “Hem AE, WBC decreased” value is recorded as “WBC decreased (26%)”. For the same molecule, in series [5], the “Non-hem AE, diarrhea” value is “Diarrhea (83%),”; the “Non-hem AE, nausea” value was “nausea (74%)”; the “Non-hem AE, vomiting” value is on record as “vomiting (54%),”.
As for `CN1CCC(CNc2ccc3ncc(-c4cccc(OC(F)(F)F)c4)n3n2)CC1` [Compound (2)], the hematology parameters result in series [6] (10 mg/kg/day, either sex) is reported as “not considered to be altered”. The “platelet counts (PLT) increase” value amounted to 12.1% in series [6] (30 mg/kg/day, females); 16.5% in series [6] (30 mg/kg/day, males); 26.3% in series [6] (90 mg/kg/day, females); 20% in series [6] (90 mg/kg/day, males). The IC50 in series [2] (unit inferred, read-out: PIM2 IC50) was 980 nM; in series [3] (unit inferred, read-out: PIM3 IC50), 20 nM; in series [4] (unit inferred, read-out: PIM1 IC50), […].
On to `Cc1cnc(Nc2ccc(OCCN3CCCC3)cc2)nc1Nc1cccc(S(=O)(=O)NC(C)(C)C)c1` [Fedratinib, fedratinib], for which, in series [7], the “TEAE Anemia, All Gr” value is listed as 99%; the “TEAE Anemia, ≥3 Gr” value is 43%; the “TEAE Neutropenia, All Gr” value was 28%; the “TEAE Neutropenia, ≥3 Gr” value is on record as 8%. For the same molecule, in series [7], the “TEAE Thrombocytopenia, All Gr” value was 63% and the “TEAE Thrombocytopenia, ≥3 Gr” value was 17%.
Take `C[C@H]1CN(c2c(NC(=O)c3ccc(F)c(-c4c(F)cccc4F)n3)cnc3c2CC[C@H]3O)C[C@@H](N)[C@@H]1O` [INCB053914]: in series [1] (setting [12]), the “Hem AE, G3+ anemia” value is reported as “G3+ Anemia (18%)”; the “Hem AE, G3+ thrombocytopenia” value is “(13%)”; the “Non-hem AE, ALT/AST increased” value is on record as “(36%),”; the “Non-hem AE, diarrhea” value is “diarrhea (21%), rash”. In series [1] (setting [12]), the “Non-hem AE, nausea” value is given as “nausea (23%),” and the “Non-hem AE, rash” value is “(15%)”. Moreover, the IC50 in series [2] (setting [9]) is 30 nM. For the same molecule, the IC50 in series [3] (setting [10]) is 0.12 nM. Moreover, the IC50 in series [4] (setting [11]) is 0.24 nM.
Regarding `CC1(C)CCC(c2ccc(Cl)cc2)=C(CN2CCN(c3ccc(C(=O)NS(=O)(=O)c4ccc(N[C@H](CCN5CCOCC5)CSc5ccccc5)c(S(=O)(=O)C(F)(F)F)c4)cc3)CC2)C1` [Navitoclax, navitoclax], in series [8], the “SVR35 at Week 24” value is listed as 7% and the “TSS50 at Week 24” value is 10%.
